Data: patent US20260022143A1, “Cyclic Peptide Inhibitors of IL-23” (JANSSEN PHARMACEUTICA NV, priority 2022, published 2026)
pIC50: −log10 of the molar value. Starred links: 1 amine or outer side, 2 acyl side, 3 side chain; linkers in the order of their positions; H or OH if unused. Positions of bridges follow the written chain, without caps; N, C: chain ends. Non-standard residues stand in square brackets, D forms with d. Residues, ends and D or L forms follow the SMILES beside them. Groups on a side chain read outwards from the residue. *: point of attachment. Me3N+(CH2)2O(CH2)2O(CH2)2CO = C[N+](C)(C)CCOCCOCCC(=O)*; Trp(7-Me) = Cc1cccc2c(C[C@H](N)C(=O)O)c[nH]c12; γGlu = O=C(O)[C@H](CCC(=O)[*:2])N[*:1]; 2Nal = N[C@@H](Cc1ccc2ccccc2c1)C(=O)O; PEG6 = NCCOCCOCCOCCOCCOCCOCCC(=O)O; 3Pal = N[C@@H](Cc1cccnc1)C(=O)O; Myristoyl = CCCCCCCCCCCCCC(=O)*; Lys(Me) = CNCCCC[C@H](N)C(=O)O; NMeK = CN[C@@H](CCCCN)C(=O)O; Pen = CC(C)(S)[C@H](N)C(=O)O; Lauroyl = CCCCCCCCCCCC(=O)*; Thp = NC1(C(=O)O)CCOCC1; X3 = C[N+](C)(C)CCCCC*; AEEA = NCCOCCOCC(=O)O

Columns and labels:
IL-23R = molecular target: T1, IL-23R (Homo sapiens, UniProt Q5VWK5); assay: IL23R Reporter Assay; type: cell-based; conditions: HEK293 cells containing IL-23R, IL-12RP1 and STAT-inducible firefly luciferase reporter; 10 ng/mL IL-23 (EC90); 5 h at 37° C.; read-out: IL23R Reporter Assay
T1 construct: host or cells: HEK293
T1 sequence (Q5VWK5 24-629): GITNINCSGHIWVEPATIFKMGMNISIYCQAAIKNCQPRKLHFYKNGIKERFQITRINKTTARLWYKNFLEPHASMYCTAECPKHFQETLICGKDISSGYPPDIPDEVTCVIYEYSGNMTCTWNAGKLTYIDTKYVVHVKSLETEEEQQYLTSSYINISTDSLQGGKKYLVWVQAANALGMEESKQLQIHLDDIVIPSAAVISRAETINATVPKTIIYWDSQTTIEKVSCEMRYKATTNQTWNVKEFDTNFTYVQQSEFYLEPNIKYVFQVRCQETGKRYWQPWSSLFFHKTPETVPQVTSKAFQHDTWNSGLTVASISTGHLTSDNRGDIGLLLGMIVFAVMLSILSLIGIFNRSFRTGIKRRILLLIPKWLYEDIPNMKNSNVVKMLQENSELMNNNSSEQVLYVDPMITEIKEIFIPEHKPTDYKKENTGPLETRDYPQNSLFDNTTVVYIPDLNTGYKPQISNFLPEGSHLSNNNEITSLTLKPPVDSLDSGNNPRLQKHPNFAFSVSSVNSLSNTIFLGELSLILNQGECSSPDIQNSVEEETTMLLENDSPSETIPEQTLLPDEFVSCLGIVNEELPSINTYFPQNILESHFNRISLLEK

[1] = Exposed Polar Surface Area (EPSA); type: physicochemical; conditions: SFC on Chirex 3014 column; sample 1 mM DMSO stock; read-out: EPSA
Outline: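 Compounds, as 1 mM DMSO stock, were injected in duplicate onto an SFC Chirex 3014 column at 35 °C and eluted with a CO2/methanol (20 mM ammonium formate) gradient. EPSA values in Å^2 were derived from retention times using a linear fit to eight calibration standards, reinjected every 20 compounds.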

Structure (SMILES) | pIC50 (IL-23R) | EPSA [1] [A^2]
CCCCCCCCCCCC(=O)N[C@@H](CCC(=O)NCCOCCOCC(=O)NCCOCCOCC(=O)NCCCC[C@H](NC(=O)C1(NC(=O)[C@H](Cc2ccc3ccccc3c2)NC(=O)[C@H](Cc2ccc(OCCCCC[N+](C)(C)C)cc2)NC(=O)[C@H]2NC(=O)[C@H](CCCCNC(C)=O)NC(=O)[C@H](Cc3c[nH]c4c(C)cccc34)NC(=O)[C@H]([C@@H](C)O)NC(=O)[C@H](CC(N)=O)NC(=O)[C@@H](NC(=O)CCOCCOCC[N+](C)(C)C)C(C)(C)SSC2(C)C)CCOCC1)C(=O)N[C@@H](CC(N)=O)C(=O)N[C@@H](Cc1cccnc1)C(=O)N(C)[C@@H](CCCCNC(=O)COCCOCCNC(=O)COCCOCCNC(=O)CC[C@H](NC(=O)CCCCCCCCCCC)C(=O)O)C(N)=O)C(=O)O [compound 349, cPEG3aCO-Pen(3)-N-T-7MeW-K(Ac)-Pen(3)-TMAPF-2Nal-THP-K(PEG2PEG2gEC12)-N-3Pya-NMeK(PEG2PEG2gEC12)-CONH2] ({Me3N+(CH2)2O(CH2)2O(CH2)2CO}-[Pen]NT[Trp(7-Me)]K(Ac)[Pen]Y(X3)[2Nal][Thp]K([AEEA-AEEA-γGlu-Lauroyl])N[3Pal][NMeK]([AEEA-AEEA-γGlu-Lauroyl])-NH2; disulfide 1-6) | 6.66 | 179
CCCCCCCCCCCC(=O)N[C@@H](CCC(=O)NCCOCCOCC(=O)NCCOCCOCC(=O)NCCCC[C@@H]1NC(=O)[C@H](Cc2c[nH]c3c(C)cccc23)NC(=O)[C@H]([C@@H](C)O)NC(=O)[C@H](CC(=O)N(C)C)NC(=O)[C@@H](NC(=O)CCOCCOCC[N+](C)(C)C)C(C)(C)SSC(C)(C)[C@@H](C(=O)N[C@@H](Cc2ccc(OCCCCC[N+](C)(C)C)cc2)C(=O)N[C@@H](Cc2ccc3ccccc3c2)C(=O)NC2(C(=O)N[C@@H](CCCCN(C)C(C)=O)C(=O)N[C@@H](CC(N)=O)C(=O)N[C@@H](Cc3cccnc3)C(=O)N(C)[C@@H](CCCCNC(=O)COCCOCCNC(=O)COCCOCCNC(=O)CC[C@H](NC(=O)CCCCCCCCCCC)C(=O)O)C(N)=O)CCOCC2)NC1=O)C(=O)O [compound 352, cPEG3aCO-Pen(3)-N(N(Me)2)-T-7MeW-K(PEG2PEG2gEC12)-Pen(3)-TMAPF-2Nal-THP-K(NMeac)-N-3Pya-NMeK(PEG2PEG2gEC12)-CONH2] ({Me3N+(CH2)2O(CH2)2O(CH2)2CO}-[Pen]D(NMe2)T[Trp(7-Me)]K([AEEA-AEEA-γGlu-Lauroyl])[Pen]Y(X3)[2Nal][Thp][Lys(Me)](Ac)N[3Pal][NMeK]([AEEA-AEEA-γGlu-Lauroyl])-NH2; disulfide 1-6) | 6.72 | 179
CCCCCCCCCCCC(=O)N[C@@H](CCC(=O)NCCOCCOCC(=O)NCCOCCOCC(=O)NCCCC[C@@H]1NC(=O)[C@@H](NC(=O)CCOCCOCC[N+](C)(C)C)C(C)(C)SSC(C)(C)[C@@H](C(=O)N[C@@H](Cc2ccc(OCCCCC[N+](C)(C)C)cc2)C(=O)N[C@@H](Cc2ccc3ccccc3c2)C(=O)NC2(C(=O)N[C@@H](CCCCN(C)C(C)=O)C(=O)N[C@@H](CC(N)=O)C(=O)N[C@@H](Cc3cccnc3)C(=O)N(C)[C@@H](CCCCNC(=O)COCCOCCNC(=O)COCCOCCNC(=O)CC[C@H](NC(=O)CCCCCCCCCCC)C(=O)O)C(N)=O)CCOCC2)NC(=O)[C@H](CCCCNC(C)=O)NC(=O)[C@H](Cc2c[nH]c3c(C)cccc23)NC(=O)[C@H]([C@@H](C)O)NC1=O)C(=O)O [compound 356, cPEG3aCO-Pen(3)-K(PEG2PEG2gEC12)-T-7MeW-K(Ac)-Pen(3)-TMAPF-2Nal-THP-K(NMeac)-N-3Pya-NMeK(PEG2PEG2gEC12)-CONH2] ({Me3N+(CH2)2O(CH2)2O(CH2)2CO}-[Pen]K([AEEA-AEEA-γGlu-Lauroyl])T[Trp(7-Me)]K(Ac)[Pen]Y(X3)[2Nal][Thp][Lys(Me)](Ac)N[3Pal][NMeK]([AEEA-AEEA-γGlu-Lauroyl])-NH2; disulfide 1-6) | 6.55 | 174
CCCCCCCCCCCC(=O)N[C@@H](CCC(=O)NCCOCCOCCOCCOCCOCCOCCC(=O)NCCOCCOCC(=O)NCCCC[C@@H](C(N)=O)N(C)C(=O)[C@H](Cc1cccnc1)NC(=O)[C@H](CC(N)=O)NC(=O)[C@H](CCCCN(C)C(C)=O)NC(=O)C1(NC(=O)[C@H](Cc2ccc3ccccc3c2)NC(=O)[C@H](Cc2ccc(OCCCCC[N+](C)(C)C)cc2)NC(=O)[C@H]2NC(=O)[C@H](CCCCNC(C)=O)NC(=O)[C@H](Cc3c[nH]c4c(C)cccc34)NC(=O)[C@H]([C@@H](C)O)NC(=O)[C@H](CC(=O)N(C)C)NC(=O)[C@@H](NC(=O)CCOCCOCC[N+](C)(C)C)C(C)(C)SSC2(C)C)CCOCC1)C(=O)O [compound 360, cPEG3aCO-Pen(3)-N(N(Me)2)-T-7MeW-K(Ac)-Pen(3)-TMAPF-2Nal-THP-K(NMeac)-N-3Pya-NMeK(PEG2PEG6gEC12)-CONH2] ({Me3N+(CH2)2O(CH2)2O(CH2)2CO}-[Pen]D(NMe2)T[Trp(7-Me)]K(Ac)[Pen]Y(X3)[2Nal][Thp][Lys(Me)](Ac)N[3Pal][NMeK]([AEEA-PEG6-γGlu-Lauroyl])-NH2; disulfide 1-6) | 8.08 | 166
CCCCCCCCCCCCCC(=O)N[C@@H](CCC(=O)NCCOCCOCCOCCOCCOCCOCCC(=O)NCCOCCOCC(=O)NCCCC[C@@H](C(N)=O)N(C)C(=O)[C@H](Cc1cccnc1)NC(=O)[C@H](CC(N)=O)NC(=O)[C@H](CCCCN(C)C(C)=O)NC(=O)C1(NC(=O)[C@H](Cc2ccc3ccccc3c2)NC(=O)[C@H](Cc2ccc(OCCCCC[N+](C)(C)C)cc2)NC(=O)[C@H]2NC(=O)[C@H](CCCCNC(C)=O)NC(=O)[C@H](Cc3c[nH]c4c(C)cccc34)NC(=O)[C@H]([C@@H](C)O)NC(=O)[C@H](CC(=O)N(C)C)NC(=O)[C@@H](NC(=O)CCOCCOCC[N+](C)(C)C)C(C)(C)SSC2(C)C)CCOCC1)C(=O)O [compound 361, cPEG3aCO-Pen(3)-N(N(Me)2)-T-7MeW-K(Ac)-Pen(3)-TMAPF-2Nal-THP-K(NMeac)-N-3Pya-NMeK(PEG2PEG6gEC14)-CONH2] ({Me3N+(CH2)2O(CH2)2O(CH2)2CO}-[Pen]D(NMe2)T[Trp(7-Me)]K(Ac)[Pen]Y(X3)[2Nal][Thp][Lys(Me)](Ac)N[3Pal][NMeK]([AEEA-PEG6-γGlu-Myristoyl])-NH2; disulfide 1-6) | 7.92 | 168
CCCCCCCCCCCC(=O)N[C@@H](CCC(=O)NCCOCCOCC(=O)NCCOCCOCC(=O)NCCCC[C@@H](C(N)=O)N(C)C(=O)[C@H](Cc1cccnc1)NC(=O)[C@H](CC(N)=O)NC(=O)[C@H](CCCCN(C)C(C)=O)NC(=O)C1(NC(=O)[C@H](Cc2ccc3ccccc3c2)NC(=O)[C@H](Cc2ccc(OCCCCC[N+](C)(C)C)cc2)NC(=O)[C@H]2NC(=O)[C@H](CCCCNC(C)=O)NC(=O)[C@H](Cc3c[nH]c4c(C)cccc34)NC(=O)[C@H]([C@@H](C)O)NC(=O)[C@H](CC(N)=O)NC(=O)[C@@H](NC(=O)CCOCCOCC[N+](C)(C)C)C(C)(C)SSC2(C)C)CCOCC1)C(=O)O [compound 371, cPEG3aCO-Pen(3)-N-T-7MeW-K(Ac)-Pen(3)-TMAPF-2Nal-THP-K(NMeac)-N-3Pya-NMeK(PEG2PEG2gEC12)-CONH2] ({Me3N+(CH2)2O(CH2)2O(CH2)2CO}-[Pen]NT[Trp(7-Me)]K(Ac)[Pen]Y(X3)[2Nal][Thp][Lys(Me)](Ac)N[3Pal][NMeK]([AEEA-AEEA-γGlu-Lauroyl])-NH2; disulfide 1-6) | 8.26 | 182
